The record followed here is US10138229B2, “Heteroaromatic compounds as BTK inhibitors” (Boehringer Ingelheim International GmbH, priority 2012, dated 2018).

Molecules are shown by their SMILES.

This assay deals with full-length human His-tagged BTK (Homo sapiens (Human), UniProt Q06187). In words: BTK Assay (HTRF, Cisbio KinEASE-TK). The conditions noted are these: 6 nM BTK, 30 uM ATP, 15 min preincubation. The format is biochemical.
Chain of full-length human His-tagged BTK (Q06187 whole entry): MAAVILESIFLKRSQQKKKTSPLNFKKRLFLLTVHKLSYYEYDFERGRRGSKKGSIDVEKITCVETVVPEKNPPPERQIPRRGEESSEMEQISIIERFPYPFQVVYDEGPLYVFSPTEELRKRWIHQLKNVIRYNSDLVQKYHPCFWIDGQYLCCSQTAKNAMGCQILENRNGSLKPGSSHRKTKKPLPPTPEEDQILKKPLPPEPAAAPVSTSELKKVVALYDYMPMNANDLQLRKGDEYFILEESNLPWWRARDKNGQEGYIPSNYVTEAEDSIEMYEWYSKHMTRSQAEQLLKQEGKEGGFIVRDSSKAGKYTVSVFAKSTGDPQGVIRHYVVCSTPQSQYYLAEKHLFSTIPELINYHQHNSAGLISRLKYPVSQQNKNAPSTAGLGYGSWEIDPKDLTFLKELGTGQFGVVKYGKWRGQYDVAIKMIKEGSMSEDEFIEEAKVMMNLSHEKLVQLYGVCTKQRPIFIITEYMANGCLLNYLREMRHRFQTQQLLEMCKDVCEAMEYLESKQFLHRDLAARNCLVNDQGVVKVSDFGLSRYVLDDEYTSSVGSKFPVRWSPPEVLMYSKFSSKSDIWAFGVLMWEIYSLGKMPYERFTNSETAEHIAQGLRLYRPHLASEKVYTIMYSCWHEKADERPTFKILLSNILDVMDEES
Protocol: An HTRF assay (Cisbio KinEASE-TK cat #62TKOPEC) was performed to quantitate the ability of test compounds to inhibit BTK mediated phosphorylation of substrate. Assays were assembled in 384 well plates where 6 nM of full-length human His-tagged BTK (Life Technologies cat # PV3587) and test compound at varying concentrations were preincubated for 15 minutes at 28° C. Then, 1 uM of TK substrate-biotin and 30 uM ATP were added and incubated for an additional 30 minutes at 28° C.
Consider `C=CC(=O)N1CC[C@]2(C1)C[C@@H](n1nc(-c3ccc(Oc4ccccc4)nc3)c(C(N)=O)c1N)C2` [Example 114], for which it took 3.4 nM to reach half-maximal inhibition (IC50). This counts as single-digit nanomolar.

`C=CC(=O)N1CC2(CC(n3nc(-c4ccc(OCCC)cc4)c(C(N)=O)c3N)C2)C1` [Example 111] returned an IC50 of 16 nM. This IC50 is about 4.7-fold higher than that of the compound before.

`C=CC(=O)N1CCC[C@@H](n2cc(C(N)=O)c(-c3ccc(Oc4ccc(C(F)(F)F)cc4)cc3)n2)C1` [Example 63] showed an IC50 of 660 nM.

For the compound `C=CC(=O)N1CC[C@]2(C1)C[C@@H](n1nc(-c3ccc(Oc4ccccc4)nc3)c(C(N)=O)c1N)C2` [Example 123], the IC50 came to 9.1 nM. Against the preceding compound, the IC50 is about 73-fold lower.

`C=CC(=O)N1CCC[C@@H](n2cc(C(N)=O)c(-c3ccc(-n4nc(C)cc4C)cc3)n2)C1` [Example 14] returned an IC50 of 7800 nM. Against the preceding compound, the IC50 is about 860-fold higher.

In the case of `C=CC(=O)N1CC2(CC(n3nc(-c4ccc(OC5CCOC5)cc4)c(C(N)=O)c3N)C2)C1` (centres unmarked) [Example 134], the IC50 is 120 nM.

Compound `C=CC(=O)N1CC2(CC(n3nc(-c4ccc(OCC5CC5)cc4)c(C(N)=O)c3N)C2)C1` [Example 104] had an IC50 of 19 nM.

The compound `CC#CC(=O)N1CC[C@]2(C1)C[C@H](n1nc(-c3ccc(C(F)(F)F)cc3)c(C(N)=O)c1N)C2` [Example 128] had an IC50 of 0.9 nM.

The compound `C=CC(=O)N1CC[C@]2(C1)C[C@@H](c1nc(-c3ccc(Oc4ccccc4)cc3)c(C(N)=O)s1)C2` [Example 79] returned an IC50 of 6.4 nM.

For the compound `C=CC(=O)N1CCC[C@@H](n2cc(C(N)=O)c(-c3ccc(Cc4ccccc4)cc3)n2)C1` [Example 9], the IC50 is 14 nM. Compared with the last compound, the IC50 is about 2.2-fold higher.

In turn, `CC#CC(=O)N1CC[C@]2(C1)C[C@H](n1nc(-c3ccc(Oc4ccccc4)nc3)c(C(N)=O)c1N)C2` [Example 150] returned an IC50 of 0.8 nM.

`C=CC(=O)N1CCC[C@@H](n2cc(C(N)=O)c(-c3ccc(Oc4ccc(OC)cc4)cc3)n2)C1` [Example 67] came in with a half-inhibitory concentration (IC50) of 38 nM. Compared with the last compound, the IC50 is about 48-fold higher.

Turning to `C=CC(=O)N1CC[C@]2(C1)C[C@@H](n1nc(-c3ccc(OCCC)cc3)c(C(N)=O)c1N)C2` [Example 126], the midpoint of inhibition, the IC50, lay at 28 nM.

In the case of `C=CC(=O)N1CC[C@]2(C1)C[C@@H](n1cc(C(N)=O)c(-c3ccc(Oc4ccccc4)cc3)n1)C2` [Example 88], the midpoint of inhibition, the IC50, lay at 21 nM.

Consider `C=CC(=O)N1CCC[C@@H](n2cc(C(N)=O)c(-c3ccc(Oc4cccc(F)c4)cc3)n2)C1` [Example 73], for which it took 9.3 nM to reach half-maximal inhibition (IC50).

In turn, `C=CC(=O)N1CCC[C@@H](n2cc(C(N)=O)c(-c3ccc(Oc4ccccc4)c(OC)c3)n2)C1` [Example 22] returned an IC50 of 7.6 nM.

With `CC#CC(=O)N1CC[C@]2(C1)C[C@H](n1nc(-c3ccc(Oc4ccccn4)cc3)c(C(N)=O)c1N)C2` [Example 151], the IC50 was 0.7 nM.

In turn, `C=CC(=O)N1CCC[C@@H](n2cc(C(N)=O)c(-c3ccc(Oc4ccc(S(C)(=O)=O)cc4)cc3)n2)C1` [Example 64] yielded a 50% inhibitory concentration (IC50) of 6500 nM.

As for `C=CC(=O)N1CCC2(CC1)CC(c1nc(-c3ccc(Oc4ccccc4)cc3)c(C(N)=O)s1)C2` [Example 84], the IC50 turned out to be 52 nM.

For `C=CC(=O)N1CCC2(CC1)CC(n1nc(-c3ccc(Oc4ccccc4)cc3)c(C(N)=O)c1N)C2` [Example 82], half-maximal inhibition (IC50) required 2 nM.

The compound `CC#CC(=O)N1CCC[C@@H](n2cc(C(N)=O)c(-c3ccc(Oc4ccccc4)cc3)n2)C1` [Example 31] displayed an IC50 of 80 nM.

In turn, `C=CC(=O)N1CCC(Cn2cc(C(N)=O)c(-c3ccc(Oc4ccccc4)cc3)n2)C1` (centres unmarked) [Example 42] displayed an IC50 of 64 nM.

With `C=CC(=O)N1CCC(n2cc(C(N)=O)c(-c3ccc(Oc4ccccc4)cc3)n2)CC1` [Example 55], the IC50 is 6.6 nM.

As for `C=CC(=O)N1CCC[C@@H](n2cc(C(N)=O)c(-c3ccc(NC(=O)c4ccc(C(F)(F)F)cc4F)c(OC)c3)n2)C1` [Example 26], the IC50 stood at 22 nM. Compared with the last compound, the IC50 is about 3.3-fold higher.

Compound `CC#CC(=O)N1CC2(CC(n3nc(-c4ccc(C(F)(F)F)cc4)c(C(N)=O)c3N)C2)C1` [Example 147] had an IC50 of 9.2 nM.

Take `C=CC(=O)N1CCC[C@@H](n2cc(C(N)=O)c(-c3ccc(Oc4ccccc4)c(Cl)c3)n2)C1` [Example 24]: the IC50 stood at 9.4 nM. This IC50 and that of the compound before are within 1.5-fold of each other.

For the compound `CC#CC(=O)N1CC[C@]2(C1)C[C@@H](n1nc(-c3ccc(C(F)(F)F)cc3)c(C(N)=O)c1N)C2` [Example 129], half-maximal inhibition (IC50) was put at 29 nM.

`CC#CC(=O)N1CC[C@]2(C1)C[C@@H](n1nc(-c3ccc(Oc4ccccc4)cn3)c(C(N)=O)c1N)C2` [Example 118]: the IC50 is 0.5 nM.

The compound `CC#CC(=O)N1CC[C@]2(C1)C[C@H](n1nc(-c3ccc(OC(C)C)cc3)c(C(N)=O)c1N)C2` [Example 168] had an IC50 of 1.2 nM. Compared with the last compound, the IC50 is about 2.4-fold higher.

As for `CC#CC(=O)N1CC[C@]2(C1)C[C@@H](n1nc(-c3ccc(Oc4ccccc4)cn3)c(C(N)=O)c1N)C2` [Example 119], the IC50 was 11 nM.

As to `CC#CC(=O)N1CC[C@]2(C1)C[C@H](n1cc(C(N)=O)c(-c3ccc(Oc4ccccc4)cc3)n1)C2` [Example 38], the half-inhibitory concentration (IC50) came out at 13 nM. The IC50 values of the last two compounds are within 1.5-fold of each other.

Take `C=CC(=O)N1CCC[C@@H](n2cc(C(N)=O)c(-c3ccc(Oc4cccc(C)c4)cc3)n2)C1` [Example 72]: it took 4 nM to reach half-maximal inhibition (IC50). This IC50 is about 3.2-fold lower than that of the compound before.

For `CC#CC(=O)N1CCC[C@@H](c2nc(-c3ccc(Oc4ccccc4)cc3)c(C(N)=O)s2)C1` [Example 52], the half-inhibitory concentration (IC50) was 18 nM.

In turn, `CC#CC(=O)N1CC2(CC(n3nc(-c4ccc(OC(F)(F)F)cc4)c(C(N)=O)c3N)C2)C1` [Example 108] showed an IC50 of 14 nM.

`CC#CC(=O)N1CCC[C@H]1Cn1cc(C(N)=O)c(-c2ccc(Oc3ccccc3)cc2)n1` [Example 32] showed an IC50 of 150 nM.

In turn, `CC#CC(=O)N1CCC(Cn2cc(C(N)=O)c(-c3ccc(Oc4ccccc4)cc3)n2)C1` (centres unmarked) [Example 43] came in with an IC50 of 51 nM.

In turn, `C=CC(=O)N1CC2(CC(n3nc(-c4ccc(OCCC)c(F)c4)c(C(N)=O)c3N)C2)C1` [Example 139] showed an IC50 of 16 nM.

As to `CC#CC(=O)N1CC[C@]2(C1)C[C@@H](n1nc(-c3ccc(OCCC)cc3)c(C(N)=O)c1N)C2` [Example 127], the IC50 was 15 nM.

`C=CC(=O)N1CCC[C@@H](n2cc(C(N)=O)c(-c3ccc(Oc4ccccc4F)cc3)n2)C1` [Example 96] gave an IC50 of 4.8 nM.

For `C=CC(=O)N1CC2(CC(n3nc(-c4ccc(Oc5ccccc5)nc4)c(C(N)=O)c3N)C2)C1` [Example 101], half-maximal inhibition (IC50) was put at 9.2 nM.

Regarding `C=CC(=O)N1CC2(CC(n3nc(-c4ccc(O)cc4)c(C(N)=O)c3N)C2)C1` [Example 133], the 50% inhibitory concentration (IC50) was 8.4 nM.

Regarding `CC#CC(=O)N1CC[C@]2(C1)C[C@H](n1nc(-c3ccc(F)c(OCC(F)(F)F)c3)c(C(N)=O)c1N)C2` [Example 137], the IC50 worked out at 1.6 nM.

Regarding `C=CC(=O)N1CCC[C@@H](n2cc(C(N)=O)c(-c3ccc(Oc4ccc(Cl)c(Cl)c4)cc3)n2)C1` [Example 69], the half-inhibitory concentration (IC50) worked out at 43 nM.

The compound `C=CC(=O)N1CCC[C@@H](n2cc(C(N)=O)c(-c3cccc(NS(=O)(=O)c4ccc(C)cc4)c3)n2)C1` [Example 11] gave an IC50 of 5500 nM.

The compound `C=CC(=O)N1CC2(CC(n3nc(-c4ccc(Oc5ccccc5)cc4)c(C(N)=O)c3N)C2)C1` [Example 35] displayed an IC50 of 0.77 nM. This IC50 is about 7100-fold lower than that of the compound before.

Regarding `C=CC(=O)N1CC[C@]2(C1)C[C@@H](n1nc(-c3ccc(Oc4ccccc4)cn3)c(C(N)=O)c1N)C2` [Example 120], inhibition was half-maximal at 3.5 nM (IC50).

`CC#CC(=O)N1CCC2(CC1)CC(c1nc(-c3ccc(Oc4ccccc4)cc3)c(C(N)=O)[nH]1)C2` [Example 87] came in with an IC50 of 4.3 nM. This IC50 and that of the compound before are within 1.5-fold of each other.

As for `CC#CC(=O)N1CC2(CC(n3nc(-c4ccc(Oc5ccccc5)nc4)c(C(N)=O)c3N)C2)C1` [Example 102], the IC50 was found to be 2.7 nM.

In the case of `CC#CC(=O)N1CCC(Cn2cc(C(N)=O)c(-c3ccc(Oc4ccccc4)cc3)n2)CC1` [Example 49], the 50% inhibitory concentration (IC50) stood at 180 nM.

As to `C=CC(=O)N1CCC[C@@H](n2cc(C(N)=O)c(-c3ccc(C(=O)N4CCCCC4)cc3)n2)C1` [Example 94], it took 8200 nM to reach half-maximal inhibition (IC50).

Compound `C=CC(=O)N1CCC2(CC(n3nc(-c4ccc(OCCC)cc4)c(C(N)=O)c3N)C2)C1` (single isomer, unassigned) [Example 125] yielded an IC50 of 7.5 nM.

`CC#CC(=O)N1CCCC(Cn2cc(C(N)=O)c(-c3ccc(Oc4ccccc4)cc3)n2)C1` (centres unmarked) [Example 48]: half-maximal inhibition (IC50) required 90 nM.

As for `CN(C)C/C=C/C(=O)N1CC[C@]2(C1)C[C@@H](n1nc(-c3ccc(Oc4ccccc4)cc3)c(C(N)=O)c1N)C2` [Example 98], half-maximal inhibition (IC50) was put at 0.7 nM.

With `CC#CC(=O)N1CC[C@]2(C1)C[C@@H](n1nc(-c3ccc(Oc4ccccc4)nc3)c(C(N)=O)c1N)C2` [Example 122], half-maximal inhibition (IC50) required 17 nM.

In turn, `CN(C)C/C=C/C(=O)N1CCC[C@H]1Cn1cc(C(N)=O)c(-c2ccc(Oc3ccccc3)cc2)n1` [Example 36] yielded an IC50 of 230 nM.

The compound `C=CC(=O)N1CC[C@]2(C1)C[C@H](n1nc(-c3ccc(OC(F)(F)F)cc3)c(C(N)=O)c1N)C2` [Example 162] displayed an IC50 of 9.2 nM.

`CC#CC(=O)N1CCC2(CC1)CC(c1nc(-c3ccc(Oc4ccccc4)cc3)c(C(N)=O)s1)C2` [Example 85] registered an IC50 of 300 nM.

Compound `C=CC(=O)N1CC2(CC(n3nc(-c4ccc(OC(C)C)cc4)c(C(N)=O)c3N)C2)C1` [Example 105] yielded an IC50 of 13 nM.

On to `C=CC(=O)N1CC[C@]2(C1)C[C@@H](n1nc(-c3ccc(C(F)(F)F)cc3)c(C(N)=O)c1N)C2` [Example 131], for which the midpoint of inhibition, the IC50, lay at 28 nM.

Compound `CC#CC(=O)N1CC[C@]2(C1)C[C@@H](n1nc(-c3ccc(Oc4ccccc4)cc3)c(C(N)=O)c1N)C2` [Example 92] showed an IC50 of 0.89 nM.

In turn, `C=CC(=O)N1CCC[C@@H](n2cc(C(N)=O)c(-c3ccc(Oc4ccc(F)cc4)cc3)n2)C1` [Example 62] yielded an IC50 of 93 nM. This IC50 lies about 100-fold higher than the previous one.

Turning to `C=CC(=O)N1CCC[C@@H](n2cc(C(N)=O)c(-c3ccc(Nc4nc5ccccc5o4)cc3)n2)C1` [Example 27], the IC50 is 300 nM.

Regarding `C=CC(=O)N1CCC[C@@H](n2cc(C(N)=O)c(-c3ccc(NS(=O)(=O)c4cccc(Cl)c4Cl)cc3)n2)C1` [Example 61], the midpoint of inhibition, the IC50, lay at 780 nM.

In the case of `CN(C)C/C=C/C(=O)N1CCC[C@@H](n2cc(C(N)=O)c(-c3ccc(Oc4ccccc4)cc3)n2)C1` [Example 30], the half-inhibitory concentration (IC50) was 57 nM.

As for `C=CC(=O)N1CC[C@]2(C1)C[C@@H](n1nc(-c3ccc(Oc4ccccc4)cn3)c(C(N)=O)c1N)C2` [Example 117], half-maximal inhibition (IC50) required 1.1 nM.
